Laboratory results from US9796764B2, “Cyclotide genes in the fabaceae plant family” (The University of Queensland, priority 2011, dated 2017).
Where a SMILES comes first, the peptide text is derived from it.

How the values were obtained:
[1] = Haemolytic activity assay; type: cell-based, human; conditions: washed human red blood cells; % of maximum lysis (1% Triton X-100); read-out: haemolytic dose necessary to lyse 50% of the RBCs (HD50)
Procedure: (§1) Serially diluted peptide solutions were incubated with washed human red blood cells. Following incubation, the supernatant was transferred before the UV absorbance was measured. The amount of haemolysis was calculated as the percentage of maximum lysis (1% Triton X-100 control) after adjusting for minimum lysis (PBS control). Synthetic melittin was used for comparison. The haemolytic dose necessary to lyse 50% of the RBCs (HD50) was calculated using the regression constant from the linear portion of the haemolytic titration curve (Graphpad Prism software).

human red blood cells = experiment: Haemolytic activity assay; type: cell-based; conditions: human red blood cells
Procedure: as §1

[2] = test system: L3-stage larvae of Haemonchus contortus; experiment: Larval migration (motility) assay; type: cell-based; conditions: against Haemonchus contortus
Procedure: The effect of kB1 and Cter M on the motility of L3-stage larvae of Haemonchus contortus was assessed using a previously described method (Colgrave, et al., 2010, Antimicrob. Agents Ch. 54:2160-2166). The larvae were incubated in PBS containing a range of peptide concentrations for 24 h in the dark in a 96-well plate format. The motility of the worms was assessed wherein sinusoidal motion was indicative of health and loss of motility or the degree of motility was indicative of poor health. Nematodes that had been incubated with cyclotides were compared to control (no-peptide) wells.

[3] = test system: Helicoverpa armigera larvae; experiment: Insecticidal feeding trial; type: in vivo; conditions: against the cotton budworm Helicoverpa armigera
Procedure: H. armigera larvae were obtained from the Queensland Department of Employment, Economic Development & Innovation. A feeding trial was conducted for 48 h with larvae maintained at 25° C. throughout the experiment. Larvae were given diets consisting of wheat germ, yeast, and soy flour.

[4] = Binding to immobilized lipid vesicles (sensorgram); conditions: PE membranes
[5] = Heat denaturation, NMR spectra before and after heating; type: physicochemical; conditions: 95° C. for 5 minutes
Excerpt: (B) Superposition of the 20 lowest energy structures of Cter M. Secondary structure of Cter M (C) and PA1b (E; PDB code 1P8B). The strands are shown as arrows and the helical turns as thickened ribbons. The disulfide bonds are shown in ball-and-stick format. The structure figures were generated using MOLMOL (Koradi, R., Billeter, M. & Wüthrich, K. (1996) J. Mol. Graph. 14, 29-32). Superimposition of Cter M and PA1b (D) showing cystine knot motif; disulfide bonds are indicated, and the aC are represented by spheres.
The structure of Cter M is extremely stable evidenced by its resistance to heat denaturation. […] An ensemble and ribbon representation of the three dimensional structure is shown in FIG. 14 along with a comparison with PA1b, the pea albumin whose precursor shares high sequence homology with the Cter gene.

trypsin = molecular target: T1, trypsin (Bos taurus, UniProt P00760); experiment: Proteolysis by trypsin (MS of leaf extract); type: in vitro ADME; conditions: native Cter M in leaf extract
T1 construct: purchased Sigma T1426
T1 sequence (P00760 24-246): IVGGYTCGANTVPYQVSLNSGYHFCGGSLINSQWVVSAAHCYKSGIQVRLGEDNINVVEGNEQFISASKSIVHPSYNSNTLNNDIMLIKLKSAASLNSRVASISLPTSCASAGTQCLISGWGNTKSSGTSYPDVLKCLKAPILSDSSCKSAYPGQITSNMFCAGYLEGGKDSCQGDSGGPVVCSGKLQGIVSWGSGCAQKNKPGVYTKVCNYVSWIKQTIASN
Excerpt: (§2) The reduced and alkylated peptide, m/z 3407.6 (E, G, I) underwent proteolytic cleavage by trypsin (F) and chymotrypsin (H, J). As there is only a single tryptic site, the trypsin digestion product is observed at m/z 3424.6, whereas there were three chymotryptic sites resulting in the formation of major products at m/z 1450.7, 1511.7 and 1931.8 corresponding to KNGLPTCGETCL (SEQ ID NO:129), VPDCSCSWPICM (SEQ ID NO:130) and KNGLPTCGETCLGTCY (SEQ ID NO:131) respectively.

chymotrypsin = experiment: Proteolysis by chymotrypsin (MS of leaf extract); type: in vitro ADME; conditions: native Cter M in leaf extract
Excerpt: as §2

[6] = Solubility of the synthetic peptide; type: physicochemical
Procedure: Synthesis Cter M was synthesized using solid phase peptide synthesis and folded using conditions earlier established for other cyclotides (Daly, N. L., et al., (1999) Biochemistry 38, 10606-10614) including the use of 50% isopropanol in buffer. […] The NMR spectra of the native and synthetic Cter M peptides were recorded and found to be identical. The three-dimensional structure of Cter M was calculated with 398 distance restraints and 11 angle restraints using a simulated annealing protocol in CNS.

SMILES	HC50 [1] [µM]	haemolytic activity (human red blood cells)	anthelmintic activity [2]	insecticidal activity [3]	membrane binding [4]	resistance to heat denaturation (change in NMR spectra) [5]	hydrolysis by trypsin (trypsin)	hydrolysis by chymotrypsin (chymotrypsin)	solubility on addition of acetonitrile ([6]; addition of acetonitrile)	solubility in water ([6]; water)
CC[C@H](C)[C@@H]1NC(=O)[C@@H]2CCCN2C(=O)[C@H](Cc2c[nH]c3ccccc23)NC(=O)[C@H](CO)NC(=O)[C@@H]2CSSC[C@@H]3NC(=O)[C@H]([C@@H](C)O)NC(=O)[C@H](CCC(=O)O)NC(=O)CNC(=O)[C@@H]4CSSC[C@H](NC(=O)[C@H](CC(=O)O)NC(=O)[C@@H]5CCCN5C(=O)[C@H](C(C)C)NC(=O)[C@H](Cc5ccc(O)cc5)NC(=O)[C@H](CSSC[C@H](NC1=O)C(=O)N[C@@H](CCSC)C(=O)N[C@@H](CCCCN)C(=O)N[C@@H](CC(N)=O)C(=O)NCC(=O)N[C@@H](CC(C)C)C(=O)N1CCC[C@H]1C(=O)N[C@@H]([C@@H](C)O)C(=O)N4)NC(=O)[C@H]([C@@H](C)O)NC(=O)CNC(=O)[C@H](CC(C)C)NC(=O)[C@H]([C@@H](C)O)NC3=O)C(=O)N[C@@H](CO)C(=O)N2 [Cter M] (HELM PEPTIDE1{C.G.E.T.C.T.L.G.T.C.Y.V.P.D.C.S.C.S.W.P.I.C.M.K.N.G.L.P.T}$PEPTIDE1,PEPTIDE1,1:R3-15:R3|PEPTIDE1,PEPTIDE1,5:R3-17:R3|PEPTIDE1,PEPTIDE1,10:R3-22:R3|PEPTIDE1,PEPTIDE1,1:R1-29:R2$$$V2.0)	> 100	mildly haemolytic	anthelmintic activity	insecticidal activity	binds to PE membranes	no changes were observed in the spectra	no observed hydrolysis	no observed hydrolysis	greatly improved the solubility	relatively low solubility in water
CC(C)C[C@@H]1NC(=O)CNC(=O)[C@H](CC(N)=O)NC(=O)[C@H](CCCNC(=N)N)NC(=O)[C@H]([C@@H](C)O)NC(=O)[C@@H]2CSSC[C@@H]3NC(=O)[C@H]([C@@H](C)O)NC(=O)CNC(=O)CNC(=O)[C@H](C(C)C)NC(=O)[C@@H]4CSSC[C@H](NC(=O)[C@H]([C@@H](C)O)NC(=O)[C@H](CSSC[C@H](NC(=O)[C@H](C(C)C)NC(=O)[C@@H]5CCCN5C1=O)C(=O)NCC(=O)N[C@@H](CCC(=O)O)C(=O)N[C@@H]([C@@H](C)O)C(=O)N4)NC(=O)CNC(=O)[C@@H]1CCCN1C(=O)[C@H]([C@@H](C)O)NC(=O)[C@H](CC(N)=O)NC3=O)C(=O)N[C@@H](CO)C(=O)N[C@@H](Cc1c[nH]c3ccccc13)C(=O)N1CCC[C@H]1C(=O)N[C@@H](C(C)C)C(=O)N2 [kB1, kalata B1, reference compound]	7.8									
